For 25 molecules, IC50 and inhibition in vivo results are on record in patent publication US20220363667A1 (Nippon Chemiphar Co., Ltd., priority 2018, published 2022).

Counter-ions that a name gives are not always drawn.

T1 sequence (O95180 whole entry): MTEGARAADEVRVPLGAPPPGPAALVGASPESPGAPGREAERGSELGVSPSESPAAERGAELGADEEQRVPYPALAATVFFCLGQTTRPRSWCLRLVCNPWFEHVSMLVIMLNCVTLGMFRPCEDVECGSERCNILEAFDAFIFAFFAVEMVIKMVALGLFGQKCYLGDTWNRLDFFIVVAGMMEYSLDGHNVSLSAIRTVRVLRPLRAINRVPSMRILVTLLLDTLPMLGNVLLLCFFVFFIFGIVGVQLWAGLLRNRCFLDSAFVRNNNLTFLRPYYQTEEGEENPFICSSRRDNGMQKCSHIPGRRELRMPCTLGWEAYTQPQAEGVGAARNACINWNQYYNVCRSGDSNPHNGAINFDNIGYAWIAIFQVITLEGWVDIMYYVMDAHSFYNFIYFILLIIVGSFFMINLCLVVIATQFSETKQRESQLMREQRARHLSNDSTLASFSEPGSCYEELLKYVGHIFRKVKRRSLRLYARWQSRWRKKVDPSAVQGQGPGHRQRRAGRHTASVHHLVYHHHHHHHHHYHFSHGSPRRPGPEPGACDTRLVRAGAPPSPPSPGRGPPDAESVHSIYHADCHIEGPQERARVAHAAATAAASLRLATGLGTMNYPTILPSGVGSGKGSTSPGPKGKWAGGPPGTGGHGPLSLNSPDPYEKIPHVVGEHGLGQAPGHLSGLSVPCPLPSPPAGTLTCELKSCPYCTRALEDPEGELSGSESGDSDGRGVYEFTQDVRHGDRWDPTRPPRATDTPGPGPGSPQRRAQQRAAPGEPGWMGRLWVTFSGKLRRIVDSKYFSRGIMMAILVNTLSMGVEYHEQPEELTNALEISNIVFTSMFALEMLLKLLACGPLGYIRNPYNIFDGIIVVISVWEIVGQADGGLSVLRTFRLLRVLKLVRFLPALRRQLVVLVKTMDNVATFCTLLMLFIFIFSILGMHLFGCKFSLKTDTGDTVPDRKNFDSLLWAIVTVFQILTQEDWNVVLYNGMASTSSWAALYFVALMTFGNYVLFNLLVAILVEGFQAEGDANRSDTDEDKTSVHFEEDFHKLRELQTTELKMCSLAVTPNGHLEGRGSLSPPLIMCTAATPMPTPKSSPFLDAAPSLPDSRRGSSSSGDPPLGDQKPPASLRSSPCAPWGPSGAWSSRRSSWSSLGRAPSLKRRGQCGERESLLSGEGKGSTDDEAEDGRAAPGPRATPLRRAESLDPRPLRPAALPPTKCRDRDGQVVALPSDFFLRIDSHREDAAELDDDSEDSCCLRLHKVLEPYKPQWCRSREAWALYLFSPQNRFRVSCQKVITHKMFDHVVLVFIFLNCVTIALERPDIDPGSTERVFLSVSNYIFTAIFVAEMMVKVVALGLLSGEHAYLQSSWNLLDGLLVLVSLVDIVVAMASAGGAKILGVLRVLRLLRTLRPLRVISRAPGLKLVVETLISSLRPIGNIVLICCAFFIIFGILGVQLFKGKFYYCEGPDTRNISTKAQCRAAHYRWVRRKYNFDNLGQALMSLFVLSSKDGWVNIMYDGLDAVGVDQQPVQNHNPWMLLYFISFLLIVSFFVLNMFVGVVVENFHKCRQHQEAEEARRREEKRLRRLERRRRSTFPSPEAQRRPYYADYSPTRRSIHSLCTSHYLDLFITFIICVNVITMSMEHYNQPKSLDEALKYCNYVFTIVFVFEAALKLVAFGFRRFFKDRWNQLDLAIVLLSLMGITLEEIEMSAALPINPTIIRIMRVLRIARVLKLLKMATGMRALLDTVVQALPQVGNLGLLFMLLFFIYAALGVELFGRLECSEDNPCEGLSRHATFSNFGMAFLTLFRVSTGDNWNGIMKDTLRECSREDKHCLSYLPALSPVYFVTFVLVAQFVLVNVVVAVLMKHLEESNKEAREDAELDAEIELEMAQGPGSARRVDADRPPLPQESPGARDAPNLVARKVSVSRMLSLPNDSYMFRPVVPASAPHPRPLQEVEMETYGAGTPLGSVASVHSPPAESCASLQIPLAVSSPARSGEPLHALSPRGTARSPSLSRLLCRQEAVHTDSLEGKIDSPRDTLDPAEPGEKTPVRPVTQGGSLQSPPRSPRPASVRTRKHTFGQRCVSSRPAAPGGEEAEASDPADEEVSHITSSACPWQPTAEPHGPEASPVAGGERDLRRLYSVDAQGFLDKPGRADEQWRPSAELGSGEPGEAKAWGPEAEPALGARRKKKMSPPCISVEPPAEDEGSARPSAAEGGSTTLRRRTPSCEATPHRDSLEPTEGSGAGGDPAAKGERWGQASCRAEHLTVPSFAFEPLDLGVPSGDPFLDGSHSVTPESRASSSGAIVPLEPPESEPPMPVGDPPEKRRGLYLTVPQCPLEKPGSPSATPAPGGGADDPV

One assay has as its target T1, human Cav3.2 channels (Homo sapiens, UniProt O95180).
T1 construct: expressed in transfected cells
The assay is described as follows: T-type calcium blocking action: intracellular calcium concentration in cells steadily expressing human Cav3.2 channels. It counts as cell-based. The settings on record: HEK293 cells steadily expressing human Cav3.2 channels; Fluo-4 AM fluorescence increase after KCl stimulus. The text has this:
(1) Construction of Cells Steadily Expressing Human Cav3.2 Channels
A sequence obtained by adding HindIII site and a kozak sequence (GCCACC) to the 5′-side of human Cav3.2 channel ORF (Open Reading Frame) gene and adding a KpnI site to the 3′-side of the gene, was incorporated into pcDNA3.1 (+) (Thermo Fisher Scientific, #V790-20), and the plasmid was introduced into HEK293 cells (ATCC No. CRL-1573) according to the protocol of FuGENE (registered trademark) HD Transfection Reagent (Promega, #E2311).
(2) Method for Measuring Intracellular Calcium Concentration
The cell strain steadily expressing human Cav3.2 channels as produced by the testing method (1) was seeded on a 96-well plate using DMEM including 10% FBS, and the cells were cultured for 48 hours under the conditions of 37° C. and 5% CO2. Subsequently, the medium was removed, and each of the wells were washed with buffer A and treated with 80 μL of a fluorescent dye solution including a mixed liquid of 22 μg of a fluorescent calcium indicator, Fluo-4 AM (Dojindo Molecular Technologies, Inc., #F311), 20 μL of dimethyl sulfoxide (DMSO), 1 μL of 10% Pluronic F-127 (Thermo Fisher Scientific, #P6866), and 4 mL of buffer A. After the cells were left to stand for 45 minutes at room temperature under light-shielded conditions, and then the cells were washed with buffer B. DMSO as a negative control and various test compound solutions each obtained by dissolving a test compound dissolved in DMSO, in buffer B so as to obtain a 10-fold concentration of the evaluation concentration, were introduced into respective wells. The final concentration of DMSO was adjusted to 0.1%. The cells were left to stand for another 15 minutes at room temperature under light-shielded conditions, and measurement was made using a microplate reader, EnVision (PerkinElmer Inc.) using the following method. First, the background fluorescence of each well was measured, subsequently an ionophore was introduced into each well, and the baseline fluorescence was measured. Subsequently, buffer B having 83.8 mM KCl added thereto was introduced, and an increase in fluorescence caused by calcium influx generated by the stimulus was measured for 10 seconds. The percentage inhibition was calculated from the maximum fluorescence increase value from the baseline, the logarithmic value of the test compound concentration and the inhibitory activity are plotted, and thereby the IC50 value was calculated. The measurement was carried out by observing the fluorescence at 510 nm that was emitted when the cells were irradiated with excitation light at 485 nm.
Buffer A: 140 mM NaCl, 5 mM KCl, 1 mM MgCl2, 0.5 mM CaCl2, 10 mM Glucose, 10 mM HEPES, pH 7.3
Buffer B: 137.9 mM Choline-Cl, 4.1 mM KCl, 1 mM MgCl2, 0.5 mM CaCl2, 10 mM Glucose, 10 mM HEPES, pH 7.3, equilibrium potential of potassium: −92 mV
In general terms: Calcium assays in cells follow changes in intracellular calcium, usually with a dye or a luminescent sensor.
Consider `N#Cc1ccc2[nH]c(C3CC3C(=O)N[C@@H]3CCN(c4ccc(C(F)(F)F)nc4)C3)nc2c1` (single isomer, unassigned) [Example 61A], for which the concentration for half-maximal inhibition (IC50) (in general, the point on the concentration scale where inhibition reaches its midpoint) was 1100 nM.

For `N#Cc1ccc2[nH]c(C3CC3C(=O)N[C@@H]3CCN(c4ccc(C(F)(F)F)nc4)C3)nc2c1` (single isomer, unassigned) [Example 61B], the IC50 is 2200 nM.

`O=C(Cc1ccc(C2CC2)cc1)N[C@@H]1CCN(c2cc(C(F)(F)F)c3nccn3c2)C1` [Example 20, (R)-2-(4-cyclopropylphenyl)-N-(1-(8-(trifluoromethyl)imidazo[1,2-a]pyridin-6-yl)pyrrolidin-3-yl)acetamide]: the IC50 is greater than 10000 nM.

In the case of `O=C(N[C@@H]1CCN(c2cncc(C(F)(F)F)c2)C1)[C@H]1C[C@@H]1c1nc2cc(F)c(F)cc2o1` [Example 45], the half-maximal inhibitory concentration (IC50) worked out at 11 nM.

For the molecule `O=C(N[C@H]1CCN(c2ccc(C(F)(F)F)nc2)C1)[C@H]1C[C@@H]1c1nc2ccccc2[nH]1` [Example 55, (1S,25)-2-(1H-benzo[d]imidazol-2-yl)-N—((S)-1-(6-(trifluoromethyl)pyridin-3-yl)pyrrolidin-3-yl)cyclopropane-1-carboxyamide], the 50% inhibitory concentration (IC50) is 470 nM.

The test system of a further assay is SD rats. The assay is described as follows: Rat formalin test. It counts as in vivo. Particulars: po, 30 mg/kg orally once, pain behavior time from 15 to 30 minutes after formalin administration vs vehicle group, read-out: Inhibition ratio (pain behavior inhibition ratio). The protocol:
30 mg/kg of a vehicle or a test substance was orally administrated to SD rats once, and according to the method described in McNamara C. R., Mandel-Brehm J., Bautista D. M., Siemens J., Deranian K. L., Zhao M., Hayward N. J., Chong J. A., Julius D., Moran M. M., Fanger C. M.: TRPA1 mediates formalin-induced pain. Proc. Natl. Acad. Sci. U.S.A. 104, 2007, 13525-13530, 50 μL of a 2.0% formalin solution as a pain-inducing substance was subcutaneously administered under the skin of the plantar plate of the right hind limb of each rat.
Regarding the evaluation, the pain behavior inhibition ratio was determined from the pain behavior time of each test substance-administered group with respect to the pain behavior time of the vehicle-administered group for 15 minutes measured from 15 minutes to 30 minutes after the administration.
In the case of `O=C(N[C@@H]1CCN(c2ccc(C(F)(F)F)nc2)C1)[C@H]1C[C@@H]1c1nc2ccccc2[nH]1` [Example 54, (1S,2S)-2-(1H-benzo[d]imidazol-2-yl)-N—((R)-1-(6-(trifluoromethyl)pyridin-3-yl)pyrrolidin-3-yl)cyclopropane-1-carboxyamide], the inhibition in vivo at 30 mg/kg was less than 10%.

For the molecule `O=C(N[C@@H]1CCN(c2cnc(C(F)(F)F)nc2)C1)[C@H]1C[C@@H]1c1nc2ccccc2[nH]1` [Example 70, (1S,2S)-2-(1H-benzo[d]imidazol-2-yl)-N—((R)-1-(2-(trifluoromethyl)pyrimidin-5-yl)pyrrolidin-3-yl)cyclopropane-1-carboxyamide], the inhibition in vivo at 30 mg/kg was less than 10%.

For the molecule `O=C(N[C@@H]1CCN(c2cncc(C(F)(F)F)c2)C1)[C@H]1C[C@@H]1c1nc2ccccc2[nH]1` [Example 71, (1S,2S)-2-(1H-benzo[d]imidazol-2-yl)-N—((R)-1-(5-(trifluoromethyl)pyridin-3-yl)pyrrolidin-3-yl)cyclopropane-1-carboxyamide], the inhibition in vivo at 30 mg/kg is less than 10%.

In the case of `O=C(Cc1ccc2ncccc2c1)N[C@@H]1CCN(c2cncc(C(F)(F)F)c2)C1` [Example 77, (R)-2-(quinolin-6-yl)-N-(1-(5-(trifluoromethyl)pyridin-3-yl)pyrrolidin-3-yl)acetamide], the inhibition in vivo at 30 mg/kg was less than 10%.

Regarding `O=C(Cc1ccc2cccnc2c1)N[C@@H]1CCN(c2cncc(C(F)(F)F)c2)C1` [Example 79, (R)-2-(quinolin-7-yl)-N-(1-(5-(trifluoromethyl)pyridin-3-yl)pyrrolidin-3-yl)acetamide hydrochloride], the inhibition in vivo at 30 mg/kg was less than 10%.

Regarding `O=C(Cc1ccc(N2CCC(F)(F)C2)cc1)N[C@@H]1CCN(c2ccc(C(F)(F)F)nc2)C1` [Example 84, (R)-2-(4-(3,3-difluoropyrrolidin-1-yl)phenyl)-N-(1-(6-(trifluoromethyl)pyridin-3-yl)pyrrolidin-3-yl)acetamide], the inhibition in vivo at 30 mg/kg was less than 10%.

Regarding `O=C(Cc1ccc2cc[nH]c2c1)N[C@@H]1CCN(c2ccc(C(F)(F)F)nc2)C1` [Example 85, (R)-2-(1H-indol-6-yl)-N-(1-(6-(trifluoromethyl)pyridin-3-yl)pyrrolidin-3-yl)acetamide], the inhibition in vivo at 30 mg/kg is less than 10%.

Take `CC(C)c1ccc(CC(=O)NC2CCN(c3cncc(C(F)(F)F)c3)CC2)cc1` [Example 109, 2-(4-Isopropylphenyl)-N-(1-(5-(trifluoromethyl)pyridin-3-yl)piperidin-4-yl)acetamide]: the inhibition in vivo at 30 mg/kg is no less than 20%.

Regarding `COc1ncc(N2CC[C@@H](NC(=O)Cc3ccc(C(C)C)cc3)C2)cc1C(F)(F)F` [Example 110, (R)-2-(4-isopropylphenyl)-N-(1-(6-methoxy-5-(trifluoromethyl)pyridin-3-yl)pyrrolidin-3-yl)acetamide], the inhibition in vivo at 30 mg/kg was no less than 20%.

Take `CC(C)c1ccc(CC(=O)N[C@@H]2CCN(c3nc(C(F)(F)F)cs3)C2)cc1` [Example 112, (R)-2-(4-isopropylphenyl)-N-(1-(4-(trifluoromethyl)thiazol-2-yl)pyrrolidin-3-yl)acetamide]: the inhibition in vivo at 30 mg/kg is no less than 20%.

On to `CC(C)c1ccc(CC(=O)N[C@@H]2CCN(c3ccc(C(F)(F)F)nc3)C2)cc1` [Example 113, (R)-2-(4-isopropylphenyl)-N-(1-(6-(trifluoromethyl)pyridin-3-yl)pyrrolidin-3-yl)acetamide], for which the inhibition in vivo at 30 mg/kg was in the range of 10 to 20%.

As to `CC(C)c1ccc(CC(=O)NC2CN(c3cncc(C(F)(F)F)c3)C2)cc1` [Example 117, 2-(4-Isopropylphenyl)-N-(1-(5-(trifluoromethyl)pyridin-3-yl)azetidin-3-yl)acetamide], the inhibition in vivo at 30 mg/kg is no less than 20%.

With `O=C(Cc1ccc(C2CC2)cc1)N[C@@H]1CCN(c2ccc(C(F)(F)F)nc2)C1` [Example 121, (R)-2-(4-cyclopropylphenyl)-N-(1-(6-(trifluoromethyl)pyridin-3-yl)pyrrolidin-3-yl)acetamide], the inhibition in vivo at 30 mg/kg was less than 10%.

For `O=C(Cc1ccc(C(F)(F)F)cc1)N[C@@H]1CCN(c2cncc(C(F)(F)F)c2)C1` [Example 123, (R)-2-(4-(trifluoromethyl)phenyl)-N-(1-(5-(trifluoromethyl)pyridin-3-yl)pyrrolidin-3-yl)acetamide], the inhibition in vivo at 30 mg/kg is no less than 20%.

As to `O=C(Cc1ccc2cc[nH]c2c1)N[C@@H]1CCN(c2cncc(C(F)(F)F)c2)C1` [Example 124, (R)-2-(1H-indol-6-yl)-N-(1-(5-(trifluoromethyl)pyridin-3-yl)pyrrolidin-3-yl)acetamide], the inhibition in vivo at 30 mg/kg was no less than 20%.

On to `CC(C)(O)c1ccc(CC(=O)N[C@@H]2CCN(c3cncc(C(F)(F)F)c3)C2)cc1` [Example 131, (R)-2-(4-(2-hydroxypropan-2-yl)phenyl)-N-(1-(5-(trifluoromethyl)pyridin-3-yl)pyrrolidin-3-yl)acetamide], for which the inhibition in vivo at 30 mg/kg was less than 10%.

Take `CC(C)(C(=O)N[C@@H]1CCN(c2cncc(C(F)(F)F)c2)C1)c1ccc(C2CC2)cc1` [Example 135, (R)-2-(4-cyclopropylphenyl)-2-methyl-N-(1-(5-(trifluoromethyl)pyridin-3-yl)pyrrolidin-3-yl)propanamide]: the inhibition in vivo at 30 mg/kg was less than 10%.

Consider `NC(C(=O)N[C@@H]1CCN(c2cncc(C(F)(F)F)c2)C1)c1ccc(C2CC2)cc1` (stereo partly drawn) [Example 137, 2-amino-2-(4-cyclopropylphenyl)-N—((R)-1-(5-(trifluoromethyl)pyridin-3-yl)pyrrolidin-3-yl)acetamide], for which the inhibition in vivo at 30 mg/kg was no less than 20%.

For the molecule `O=C(Cc1ccc(C(F)(F)F)cc1F)N[C@@H]1CCN(c2cncc(C(F)(F)F)c2)C1` [Example 141, (R)-2-(2-fluoro-4-(trifluoromethyl)phenyl)-N-(1-(5-(trifluoromethyl)pyridin-3-yl)pyrrolidin-3-yl)acetamide], the inhibition in vivo at 30 mg/kg was less than 10%.

On to `O=C(Cc1ccc(N2CCOCC2)cc1)N[C@@H]1CCN(c2cncc(C(F)(F)F)c2)C1` [Example 181, (R)-2-(4-morpholinophenyl)-N-(1-(5-(trifluoromethyl)pyridin-3-yl)pyrrolidin-3-yl)acetamide], for which the inhibition in vivo at 30 mg/kg was no less than 20%.
